Here are results for six compounds from publication PMC4475420 (Chemistry & biology, 2015).

Test in all cases: PK/LDH coupled NADH oxidation assay, […] nm
Assay type in all cases: biochemical

Assay [1] addresses T1, OtsA(Sco) (Streptomyces coelicolor, UniProt Q9KXV1).
T1 sequence (Q9KXV1 1-462): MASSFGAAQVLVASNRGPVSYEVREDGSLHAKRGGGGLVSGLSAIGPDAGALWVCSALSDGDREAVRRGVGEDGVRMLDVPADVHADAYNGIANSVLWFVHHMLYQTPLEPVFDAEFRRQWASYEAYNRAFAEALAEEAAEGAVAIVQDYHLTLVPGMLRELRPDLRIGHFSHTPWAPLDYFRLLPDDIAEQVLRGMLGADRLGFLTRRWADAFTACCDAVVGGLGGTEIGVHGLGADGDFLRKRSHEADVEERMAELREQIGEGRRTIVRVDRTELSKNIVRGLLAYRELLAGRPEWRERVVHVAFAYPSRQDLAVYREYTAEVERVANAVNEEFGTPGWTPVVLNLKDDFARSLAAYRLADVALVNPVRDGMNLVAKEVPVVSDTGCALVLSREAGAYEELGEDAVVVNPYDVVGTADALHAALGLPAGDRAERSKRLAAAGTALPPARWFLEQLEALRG
Conditions: 5 mM MgCl2, Tris-HCl pH 7.5.

Assay [2] deals with Chimera-2. Conditions: 5 mM MgCl2, Tris-HCl pH 7.5.
For assay [3], the system named is Chimera-1. Conditions: 5 mM MgCl2, Tris-HCl pH 7.5.
The target in assay [4] is VldE (Streptomyces hygroscopicus, UniProt Q15JG1). Conditions: 2 mM validamine 7-phosphate, 5 mM MgCl2, Tris-HCl pH 7.5.
Chain of VldE (Q15JG1 whole entry): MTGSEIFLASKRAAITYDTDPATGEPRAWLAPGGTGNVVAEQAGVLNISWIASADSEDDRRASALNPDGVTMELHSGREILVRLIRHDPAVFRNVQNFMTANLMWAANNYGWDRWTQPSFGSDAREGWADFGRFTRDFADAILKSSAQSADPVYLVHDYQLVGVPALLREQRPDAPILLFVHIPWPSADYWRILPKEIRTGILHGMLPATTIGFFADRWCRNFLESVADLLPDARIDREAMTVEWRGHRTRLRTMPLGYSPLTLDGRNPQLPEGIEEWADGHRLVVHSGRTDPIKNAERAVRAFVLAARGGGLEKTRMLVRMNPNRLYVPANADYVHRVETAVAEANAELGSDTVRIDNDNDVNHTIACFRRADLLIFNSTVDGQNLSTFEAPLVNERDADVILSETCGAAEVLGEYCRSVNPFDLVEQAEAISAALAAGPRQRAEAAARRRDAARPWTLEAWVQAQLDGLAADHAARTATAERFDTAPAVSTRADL

For orientation: Km means the substrate concentration at which the rate is half of its maximum. As to `O=P(O)(O)OC[C@H]1C[C@H](O)[C@H](O)[C@@H](O)[C@@H]1O` [validol 7-phosphate], the results for the Km in assay [1] (2 mM GDP-glucose) and in assay [2] (2 mM GDP-glucose) were greater than 10 mM and 4.95 ± 0.7 mM, respectively.

In the case of `Nc1nc2c(ncn2[C@@H]2O[C@H](COP(=O)(O)OP(=O)(O)O[C@H]3O[C@H](CO)[C@@H](O)[C@H](O)[C@H]3O)[C@@H](O)[C@H]2O)c(=O)[nH]1` [GDP-glucose], the Km in assay [2] (2 mM glucose 6-phosphate) was 3.56 ± 0.38 mM; in assay [3] (2 mM validamine 7-phosphate), 1.1 ± 0.07 mM; in assay [4], greater than 2.2 mM.

`Nc1nc2c(ncn2[C@@H]2O[C@H](COP(=O)(O)OP(=O)(O)O[C@H]3C=C(CO)[C@@H](O)[C@H](O)[C@H]3O)[C@@H](O)[C@H]2O)c(=O)[nH]1` [GDP-valienol]: the Km in assay [3] (2 mM validamine 7-phosphate) was greater than 10 mM.

Take `N[C@H]1C[C@H](COP(=O)(O)O)[C@@H](O)[C@H](O)[C@H]1O` [validamine 7-phosphate]: in assay [3] (2 mM GDP-glucose), the Km worked out at 0.975 ± 0.1 mM.

Turning to `O=P(O)(O)OC[C@H]1OC(O)[C@H](O)[C@@H](O)[C@@H]1O` (stereo partly drawn) [glucose 6-phosphate], the Michaelis constant (Km) in assay [2] (2 mM GDP-glucose) is 6.44 ± 0.95 mM.

With `Nc1ccn([C@@H]2O[C@H](COP(=O)(O)OP(=O)(O)O[C@H]3O[C@H](CO)[C@@H](O)[C@H](O)[C@H]3O)[C@@H](O)[C@H]2O)c(=O)n1` [CDP-glucose], the Km in assay [1] (2 mM glucose 6-phosphate) is greater than 4 mM.
